Laboratory results as given in publication PMC7470810 (Acta Pharmacologica Sinica, 2019).

How the values were obtained:
MDCKII-WT cells = test: Uptake of AZT in MDCKII-WT cells; format: in vitro ADME, canine; conditions: wild-type MDCKII cells, AZT 1 μM, 120 min
brain BCRP = biological target: T1, brain BCRP (Rattus norvegicus, UniProt Q80W57); conditions: normal rats
T1 sequence (Q80W57 1-657): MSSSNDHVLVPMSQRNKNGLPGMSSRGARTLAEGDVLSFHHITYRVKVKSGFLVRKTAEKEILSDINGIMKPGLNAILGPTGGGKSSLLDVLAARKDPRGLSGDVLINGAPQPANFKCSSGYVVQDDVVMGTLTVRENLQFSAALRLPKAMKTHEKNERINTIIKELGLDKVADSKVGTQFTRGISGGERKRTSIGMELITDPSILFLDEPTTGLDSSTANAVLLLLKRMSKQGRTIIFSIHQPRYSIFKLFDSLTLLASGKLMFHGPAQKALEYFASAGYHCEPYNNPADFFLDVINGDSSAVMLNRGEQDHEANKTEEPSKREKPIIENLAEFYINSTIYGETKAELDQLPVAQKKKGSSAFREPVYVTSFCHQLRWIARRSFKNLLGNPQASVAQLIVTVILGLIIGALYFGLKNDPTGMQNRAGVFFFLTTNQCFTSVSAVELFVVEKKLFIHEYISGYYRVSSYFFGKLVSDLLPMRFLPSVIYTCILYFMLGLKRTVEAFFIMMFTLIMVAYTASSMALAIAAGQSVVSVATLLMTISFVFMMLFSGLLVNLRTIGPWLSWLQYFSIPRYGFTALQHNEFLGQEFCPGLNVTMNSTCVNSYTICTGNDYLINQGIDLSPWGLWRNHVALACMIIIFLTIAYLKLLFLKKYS

BCRP [1] = biological target: T2, BCRP (Homo sapiens, UniProt Q9UNQ0); conditions: not told; cited from earlier work
T2 sequence (Q9UNQ0 1-655): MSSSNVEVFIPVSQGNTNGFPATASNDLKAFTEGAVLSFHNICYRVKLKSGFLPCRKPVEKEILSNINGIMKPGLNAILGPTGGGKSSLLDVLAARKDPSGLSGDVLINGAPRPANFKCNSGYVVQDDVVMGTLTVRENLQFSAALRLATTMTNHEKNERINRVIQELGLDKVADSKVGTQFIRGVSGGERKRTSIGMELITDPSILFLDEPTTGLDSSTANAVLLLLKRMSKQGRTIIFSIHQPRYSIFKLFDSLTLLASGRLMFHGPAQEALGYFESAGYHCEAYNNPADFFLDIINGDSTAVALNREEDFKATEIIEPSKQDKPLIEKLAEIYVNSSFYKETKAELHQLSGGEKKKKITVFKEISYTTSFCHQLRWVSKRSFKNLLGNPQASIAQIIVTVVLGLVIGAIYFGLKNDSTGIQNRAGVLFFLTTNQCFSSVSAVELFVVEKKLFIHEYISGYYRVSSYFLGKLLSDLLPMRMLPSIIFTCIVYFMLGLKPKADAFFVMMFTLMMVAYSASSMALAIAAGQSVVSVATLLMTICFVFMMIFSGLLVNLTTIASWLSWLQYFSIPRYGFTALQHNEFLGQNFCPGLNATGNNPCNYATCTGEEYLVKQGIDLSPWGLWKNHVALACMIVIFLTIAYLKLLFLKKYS

SO and BDL rats = test: Y-maze test during AZT treatment; format: in vivo, rat
[2] = cited from earlier work
BCRP [3] = biological target: BCRP (Homo sapiens, UniProt Q9UNQ0); conditions: HCMEC/D3 cells, siRNA for human ABCG2 vs CON
BCRP [4] = biological target: T2, BCRP; conditions: AZT 1 μM, 120 min

In the case of Ko143, the “effect of incubation with Ko143 on uptake of AZT” value (MDCKII-WT cells) is reported as “did not affect” and the “effect of coadministration of Ko143 on influx of AZT into the hippocampus” value (brain BCRP) is reported as “markedly increased”.

In the case of `CC(C)(C)NC(=O)[C@@H]1C[C@@H]2CCCC[C@@H]2CN1C[C@@H](O)[C@H](Cc1ccccc1)NC(=O)[C@H](CC(N)=O)NC(=O)c1ccc2ccccc2n1` [saquinavir], the “efflux by BCRP” value (BCRP [1]) is given as “BCRP also mediates the efflux”.

For `CO[C@@H]1[C@@H](OC(N)=O)[C@@H](O)[C@H](Oc2ccc3c(O)c(NC(=O)c4ccc(O)c(CC=C(C)C)c4)c(=O)oc3c2C)OC1(C)C` [novobiocin], the “increase in Kin of AZT with novobiocin” value (brain BCRP; cortex, AZT 25 μM + novobiocin 200 μM, 2 min perfusion) was “not significant”.

In the case of `Cc1cn([C@H]2C[C@H](N=[N+]=[N-])[C@@H](CO)O2)c(=O)[nH]c1=O` [AZT, Zidovudine], the “Y-maze percentage of alternation of arm entrance” value (SO and BDL rats; BDL rats treated with AZT 100 mg/kg every day i.v. compared with SO rats) is reported as “significantly decreased”, the “Y-maze total number of entries, effect of AZT treatment” value (SO and BDL rats; BDL rats, AZT 100 mg/kg every day i.v., day 5 of treatment) is reported as “further enhanced by AZT treatment, but the difference was not significant” and the “impairment of cognitive function by AZT” value (SO and BDL rats; SO rats, AZT 100 mg/kg every day i.v., Y-maze and shuttle box) is reported as “did not occur”. For the same molecule, the plasma protein binding [2] was 10%, the “uptake of AZT after BCRP siRNA knockdown” value (BCRP [3]) was “significantly increased” and the “uptake of AZT in MDCKII-BCRP cells, % of that in MDCKII-WT cells” value (BCRP [4]) was “approximately 50.0%”.
